Test results as given in patent publication US9328099B2, “Cyanomethylpyrazole carboxamides as janus kinase inhibitors” (Merck Sharp & Dohme Corp., priority 2011, dated 2016).

Assays:
[1] = molecular target: JAK1 (Homo sapiens (Human), UniProt P23458); test: Jak Biochemical HTRF Assay, JAK1; details: HTRF biochemical assay, GST-tagged catalytic domain; top concentration tested […]; read-out: JAK1 IC50
Text: (§1) Jak Biochemical HTRF Assay Protocol
(§2) Subsequent reagent additions employed an Agilent Bravo.

[2] = molecular target: JAK2 (Homo sapiens (Human), UniProt O60674); test: Jak Biochemical HTRF Assay, JAK2; details: HTRF biochemical assay, GST-tagged catalytic domain; top concentration tested […]
Text: as §1, §2

Chain of JAK2 (O60674 849-1124): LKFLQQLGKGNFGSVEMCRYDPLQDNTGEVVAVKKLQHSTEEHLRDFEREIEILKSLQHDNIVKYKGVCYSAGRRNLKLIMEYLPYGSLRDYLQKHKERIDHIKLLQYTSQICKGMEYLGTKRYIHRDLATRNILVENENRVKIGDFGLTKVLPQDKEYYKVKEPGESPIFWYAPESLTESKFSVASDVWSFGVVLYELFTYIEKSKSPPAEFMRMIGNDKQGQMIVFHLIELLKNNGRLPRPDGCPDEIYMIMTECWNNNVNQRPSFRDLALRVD
Chain of JAK1 (P23458 875-1153): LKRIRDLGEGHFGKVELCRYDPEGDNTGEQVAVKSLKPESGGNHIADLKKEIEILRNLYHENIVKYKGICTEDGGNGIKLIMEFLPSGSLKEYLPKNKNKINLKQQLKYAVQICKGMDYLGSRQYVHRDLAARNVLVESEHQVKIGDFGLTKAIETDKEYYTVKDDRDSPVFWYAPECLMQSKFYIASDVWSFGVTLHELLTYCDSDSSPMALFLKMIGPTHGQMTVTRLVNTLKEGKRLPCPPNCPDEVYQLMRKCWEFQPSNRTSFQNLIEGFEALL

SMILES	IC50 [1] [nM]	IC50 [2] [nM]
CCC(F)(F)C(=O)N1CCC(CC#N)(n2cc(C(N)=O)c(Nc3ccnc(F)c3)n2)CC1 [Example 34-59, 1-[4-(cyanomethyl)-1-(2,2-difluorobutanoyl)piperidin-4-yl]-3-[(2-fluoropyridin-4-yl)amino]-1H-pyrazole-4-carboxamide]	0.2	3
CC(C)(C)OC(=O)N1CCC(CC#N)(n2cc(C(N)=O)c(Nc3cccc(-c4ccccc4F)c3)n2)CC1 [Example 15-10, tert-butyl 4-{4-carbamoyl-3-[(2′-fluorobiphenyl-3-yl)amino]-1H-pyrazol-1-yl}-4-(cyanomethyl)piperidine-1-carboxylate]	31	841
N#CCC1(n2cc(C(N)=O)c(Nc3ccccc3)n2)CCN(C(=O)c2cccnc2)CC1 [Example 34-8, 1-[4-(cyanomethyl)-1-(pyridin-3-ylcarbonyl)piperidin-4-yl]-3-(phenylamino)-1H-pyrazole-4-carboxamide]	14	191
CC(C)(C)OC(=O)N1CCC(CC#N)(n2cc(C(N)=O)c(Nc3cccc(-c4cccc(Cl)c4)c3)n2)CC1 [Example 15-8, tert-butyl 4-{4-carbamoyl-3-[(3′-chlorobiphenyl-3-yl)amino]-1H-pyrazol-1-yl}-4-(cyanomethyl)piperidine-1-carboxylate]	161	1480
N#CCC1(n2cc(C(N)=O)c(Nc3ccc(F)cc3)n2)CCN(Cc2cc3ccccc3[nH]2)CC1 [Example 22-43, 1-[4-(cyanomethyl)-1-(1H-indol-2-ylmethyl)piperidin-4-yl]-3-[(4-fluorophenyl)amino]-1H-pyrazole-4-carboxamide]	1	64
CC(C)(C)OC(=O)N1CCC(CC#N)(n2cc(C(N)=O)c(Nc3ccc(C(=O)N4CCOCC4)cc3)n2)CC1 [Example 9-25, tert-butyl 4-(4-carbamoyl-3-{[4-(morpholin-4-ylcarbonyl)phenyl]amino}-1H-pyrazol-1-yl)-4-(cyanomethyl)piperidine-1-carboxylate]	0.3	0.7
N#CCC1(n2cc(C(N)=O)c(Nc3ccnc(F)c3)n2)CCC(NCc2ccc(C#N)cc2)CC1 (stereo not drawn) [Example 41-6, Cis or trans 1-{4-[(4-cyanobenzyl)amino]-1-(cyanomethyl)cyclohexyl}-3-[(2-fluoropyridin-4-yl)amino]-1H-pyrazole-4-carboxamide]	23	851
N#CCC1(n2cc(C(N)=O)c(Nc3ccnc(F)c3)n2)CCC(N2CCc3ccccc32)CC1 (stereo not drawn) [Example 40-30, Cis or trans 1-[1-(cyanomethyl)-4-(2,3-dihydro-1H-indol-1-yl)cyclohexyl]-3-[(2-fluoropyridin-4-yl)amino]-1H-pyrazole-4-carboxamide]	326	> 1500
Cc1cc(N2CCC(CC#N)(n3cc(C(N)=O)c(Nc4ccc(F)cc4)n3)CC2)cnc1C [Example 3-14, 1-[4-(cyanomethyl)-1-(5,6-dimethylpyridin-3-yl)piperidin-4-yl]-3-[(4-fluorophenyl)amino]-1H-pyrazole-4-carboxamide]	2	49
N#CCC1(n2cc(C(N)=O)c(Nc3ccccc3)n2)CN(C(=O)OCCN2CCCC2=O)C1 [Example 30-64, 2-(2-oxopyrrolidin-1-yl)ethyl 3-[4-carbamoyl-3-(phenylamino)-1H-pyrazol-1-yl]-3-(cyanomethyl)azetidine-1-carboxylate]	188	1480
CCc1cccc(C)c1NC(=O)N1CC(CC#N)(n2cc(C(N)=O)c(Nc3ccccc3)n2)C1 [Example 38-23, 1-{3-(cyanomethyl)-1-[(2-ethyl-6-methylphenyl)carbamoyl]azetidin-3-yl}-3-(phenylamino)-1H-pyrazole-4-carboxamide]	94	1190
N#CCC1(n2cc(C(N)=O)c(Nc3ccccc3)n2)CN(C(=O)OC2CCOC2)C1 (stereo not shown) [Example 30-62, tetrahydrofuran-3-yl 3-[4-carbamoyl-3-(phenylamino)-1H-pyrazol-1-yl]-3-(cyanomethyl)azetidine-1-carboxylate]	5	102
Cn1ccc(CN2CCC(CC#N)(n3cc(C(N)=O)c(Nc4ccnc(F)c4)n3)CC2)n1 [Example 22-30, 1-{4-(cyanomethyl)-1-[(1-methyl-1H-pyrazol-3-yl)methyl]piperidin-4-yl}-3-[(2-fluoropyridin-4-yl)amino]-1H-pyrazole-4-carboxamide]	86	> 1500
Cc1cc(Nc2nn(C3(CC#N)CCN(C(=O)OC(C)(C)C)CC3)cc2C(N)=O)nc(C)n1 [Example 13-10, tert-butyl 4-(4-carbamoyl-3-(2,6-dimethylpyrimidin-4-ylamino)-1H-pyrazol-1-yl)-4-(cyanomethyl)piperidine-1-carboxylate]	6	178
COc1ccc(-c2cccc(Nc3nn(C4(CC#N)CCN(C(=O)OC(C)(C)C)CC4)cc3C(N)=O)c2)cc1 [Example 15-4, tert-butyl 4-{4-carbamoyl-3-[(4′-methoxybiphenyl-3-yl)amino]-1H-pyrazol-1-yl}-4-(cyanomethyl)piperidine-1-carboxylate]	41	958
CS(=O)(=O)c1ccc(Nc2nn(C3(CC#N)CN(C(=O)Nc4cc(F)ccc4F)C3)cc2C(N)=O)cc1 [Example 38-42, 1-{3-(cyanomethyl)-1-[(2,5-difluorophenyl)carbamoyl]azetidin-3-yl}-3-{[4-(methylsulfonyl)phenyl]amino}-1H-pyrazole-4-carboxamide]	19	237
N#CCC1(n2cc(C(N)=O)c(Nc3ccc(F)cc3)n2)CCN(c2cccc(F)n2)CC1 [Example 3-54, 1-[4-(cyanomethyl)-1-(6-fluoropyridin-2-yl)piperidin-4-yl]-3-[(4-fluorophenyl)amino]-1H-pyrazole-4-carboxamide]	0.3	4
COC(C)COC(=O)N1CCC(CC#N)(n2cc(C(N)=O)c(Nc3ccc(F)cc3)n2)CC1 (stereo not shown) [Example 30-24, 2-methoxypropyl 4-{4-carbamoyl-3-[(4-fluorophenyl)amino]-1H-pyrazol-1-yl}-4-(cyanomethyl)piperidine-1-carboxylate]	4	96
N#CCC1(n2cc(C(N)=O)c(Nc3ccccc3)n2)CN(CC(F)(F)F)C1 [Example 19, 1-[3-(Cyanomethyl)-1-(2,2,2-trifluoroethyl)azetidin-3-yl]-3-(phenylamino)-1H-pyrazole-4-carboxamide]	162	870
N#CCC1(n2cc(C(N)=O)c(Nc3ccccc3)n2)CCN(S(=O)(=O)c2ccccc2)CC1 [Example 37-6, 1-[4-(cyanomethyl)-1-(phenylsulfonyl)piperidin-4-yl]-3-(phenylamino)-1H-pyrazole-4-carboxamide]	0.3	1
CC(C)NC(=O)N1CCC(CC#N)(n2cc(C(N)=O)c(Nc3ccccc3)n2)CC1 [Example 38-46, 4-[4-Carbamoyl-3-(phenylamino)-1H-pyrazol-1-yl]-4-(cyanomethyl)-N-(1-methylethyl)piperidine-1-carboxamide]	2	59
Cc1c(CN2CCC(CC#N)(n3cc(C(N)=O)c(Nc4ccnc(F)c4)n3)CC2)cnn1C [Example 22-40, 1-{4-(cyanomethyl)-1-[(1,5-dimethyl-1H-pyrazol-4-yl)methyl]piperidin-4-yl}-3-[(2-fluoropyridin-4-yl)amino]-1H-pyrazole-4-carboxamide]	23	582
CC(C)(C)OC(=O)N1CCC(CC#N)(n2cc(C(N)=O)c(Nc3ccc(C#N)c(F)c3)n2)CC1 [Example 9-26, tert-butyl 4-{4-carbamoyl-3-[(4-cyano-3-fluorophenyl)amino]-1H-pyrazol-1-yl}-4-(cyanomethyl)piperidine-1-carboxylate]	0.4	7
CC(C)(C)OC(=O)N1CCC(CC#N)(n2cc(C(N)=O)c(Nc3cccnc3)n2)CC1 [Example 9-34, tert-butyl 4-[4-carbamoyl-3-(pyridin-3-ylamino)-1H-pyrazol-1-yl]-4-(cyanomethyl)piperidine-1-carboxylate]	0.5	4
CCOc1ccccc1NC(=O)N1CC(CC#N)(n2cc(C(N)=O)c(Nc3ccccc3)n2)C1 [Example 38-30, 1-{3-(cyanomethyl)-1-[(2-ethoxyphenyl)carbamoyl]azetidin-3-yl}-3-(phenylamino)-1H-pyrazole-4-carboxamide]	62	507
CS(=O)(=O)c1ccc(Nc2nn(C3(CC#N)CCCCC3)cc2C(N)=O)cc1 [Example 2-14, 1-[1-(cyanomethyl)cyclohexyl]-3-{[4-(methylsulfonyl)phenyl]amino}-1H-pyrazole-4-carboxamide]	20	193
N#CCC1(n2cc(C(N)=O)c(Nc3ccnc(F)c3)n2)CCN(C(=O)C2CC(F)(F)C2)CC1 [Example 34-53, 1-{4-(cyanomethyl)-1-[(3,3-difluorocyclobutyl)carbonyl]piperidin-4-yl}-3-[(2-fluoropyridin-4-yl)amino]-1H-pyrazole-4-carboxamide]	0.3	15
N#CCC1(n2cc(C(N)=O)c(Nc3ccccc3)n2)CCN(C(=O)OC2Cc3ccccc3C2)CC1 [Example 30-34, 2,3-dihydro-1H-inden-2-yl 4-[4-carbamoyl-3-(phenylamino)-1H-pyrazol-1-yl]-4-(cyanomethyl)piperidine-1-carboxylate]	3	83
N#CCC1(n2cc(C(N)=O)c(Nc3ccnc(F)c3)n2)CCC(Nc2ccc(F)cc2)CC1 (stereo not drawn) [Example 40-47, Cis or trans 1-{1-(cyanomethyl)-4-[(4-fluorophenyl)amino]cyclohexyl}-3-[(2-fluoropyridin-4-yl)amino]-1H-pyrazole-4-carboxamide]	215	> 1500
